Columns and labels:
[1] = tested on: phosphorylated (active) ERK; details: 10 μM U0126 for 30 min, then 1 mM H2O2 for 30 min; Transwell filter
Procedure: Normal and hSec10-overexpressing (Sec10) MDCK cells were grown on transwell filter culture dish at confluence, incubated in either vehicle or 10 μM of U0126 (an inhibitor of ERK activation) for 30 min, and then treated with 1 mM of H2O2 for 30 min. After 30 min of incubation in U0126 cells were harvested and used to detect the levels of phosphorylated ERK. Cells were lysed in SDS buffer.
Briefly, cells or kidneys were harvested in the RIPA (Sigma Co.) containing proteinase inhibitor cocktail (Sigma. Co) and phosphatase inhibitor cocktail (Sigma. Co) and centrifuged 14,000 rpm for 20 min at 4° C. Supernatants, then, were collected and protein concentration was determined using BCA protein assay kit. Protein samples were mix SDS-sample buffer and denatured by 5 min of boiling at 95° C. The protein samples were separated on 4-12% SDS-PAGE gels and then transferred to an Immobilon membrane (Millipore Corp., Bedford, Mass.). The membranes were blocked by 5% of non-fat dry milk in PBS containing of 0.1% Tween-20 (PBS-T), and incubated in anti-phospho-ERK (1:1000, Cell signaling), -total-ERK (1:5000, Cell signaling), and -Sec10 (1:500; Lipschutz lab.) antibodies overnight at 4° C. After washing with 3 times with 0.1% PBS-T, the membranes were incubated with horseradish peroxidase-conjugated secondary antibodies for 1 h at RT. […]

normal MDCK cells = details: U0126 30 min, then 1 mM H2O2 plus U0126 30 min
Procedure: (§1) Normal and hSec10-overexpressing (Sec10) MDCK cells were grown on collagen-matrix for 12-14 days as described herein and then treated with 1 mM of hydrogen peroxide for 30 min. Some cells were treated with 10 μM U0126 30 min before the treatment of hydrogen peroxide. After the treatment cells were fixed with 4% paraformaldehyde and then stained with F-actin phalloidin-conjugated cy3. Numbers of damaged cysts were counted using fluorescence microscope.
(§2) Type II Madin-Darby canine kidney (MDCK) cells (Control cells) were obtained from Dr. K. Mostov (UCSF, San Francisco, Calif.). MDCK type II cells were overexpressing hSec10 (Sec10-overexpressing cells). See, e.g, Lipschutz et al, 2000 cited above. Cells were grown in modified Eagle's minimal essential medium (MEM) containing Earl's balanced salt solution and glutamine supplemented with 5% fetal calf serum, 100 U/ml penicillin, and 100 μg/m streptomycin on the plastic culture dishes. Some cells were grown on the 24-mm Transwell 0.45 μm polycarbonate filter units coated with collagen (Corning Life Sciences, Lowell, Mass.). Pore size on all filters was 0.4 μm. Cell monolayers were used for experiments after 7 d of culture with daily changes in medium. Cells were plated as single cells in a three-dimensional (3D) type I collagen gel. […]

[2] = tested on: Sec10-overexpressing MDCK cells; details: U0126 30 min, then 1 mM H2O2 plus U0126 30 min
Procedure: as §1, §2

control MDCK cells = tested on: control MDCK cells
Procedure: (§3) Type II Madin-Darby canine kidney (MDCK) cells (Control cells) were obtained from Dr. K. Mostov (UCSF, San Francisco, Calif.). MDCK type II cells were overexpressing hSec10 (Sec10-overexpressing cells). See, e.g, Lipschutz et al, 2000 cited above. Cells were grown in modified Eagle's minimal essential medium (MEM) containing Earl's balanced salt solution and glutamine supplemented with 5% fetal calf serum, 100 U/ml penicillin, and 100 μg/m streptomycin on the plastic culture dishes. Some cells were grown on the 24-mm Transwell 0.45 μm polycarbonate filter units coated with collagen (Corning Life Sciences, Lowell, Mass.). Pore size on all filters was 0.4 μm. Cell monolayers were used for experiments after 7 d of culture with daily changes in medium. Cells were plated as single cells in a three-dimensional (3D) type I collagen gel. To culture collagen matrix, cells grown on plastic culture dishes were harvested using trypsin-EDTA, and suspended cells on the type I collagen gel and then seeded in chamber slide for 14 days and then treated with H2O2 (Sigma-Aldrich, Co.).
(§4) Control cells and Sec10-overexpressing cells were grown on the Transwell filter for 7 days after seeding. TER was measured using epithelial volt-ohmmeter (Model EVOM, World Precision Instruments). TER values were presented as the measured resistance in ohm multiplied by the surface area of the Transwell filter.
(§5) 1) control and Sec10-overexpressing cells were treated with U0126 alone for 30 min, U0126 plus H2O2 for 30 min, and then U0126 alone for 24 hrs (FIG. 5A), and
(§6) 2) control and Sec10-overexpressing cells were treated with H2O2 for 30 min, and U0126 alone for 24 hrs (FIG. 5B).

[3] = tested on: Sec10-overexpressing MDCK cells
Procedure: as §3, §4, §5, §6

SMILES: N#CC(=C(/N)Sc1ccccc1N)/C(C#N)=C(\N)Sc1ccccc1N [U0126]
- ERK phosphorylation caused by H2O2 treatment [1]: blocked ERK phosphorylation
- Numbers of damaged cysts (normal MDCK cells): increased
- Numbers of damaged cysts [2]: increased
- TER relative to TER in H2O2 alone (control MDCK cells): about 83%
- TER recovery versus non-U0126 treated cells (control MDCK cells; control cells, 24 hrs after removal of H2O2): not significantly different
- H2O2-induced decrease of TER (control MDCK cells; control cells, U0126 pretreatment 30 min, 1 mM H2O2): accelerated H2O2-induced decrease of TER
- TER relative to TER in H2O2 alone [3]: about 80%
- TER versus U0126-nontreated cells ([3]; Sec10-overexpressing cells, 24 hrs after removal of H2O2): significantly lower
- H2O2-induced decrease of TER ([3]; Sec10-overexpressing cells, U0126 pretreatment 30 min, 1 mM H2O2): accelerated H2O2-induced decrease of TER
